# Measurements reported in DBAASP.
# Experiments:
# Experiment in all cases: ≥ marks a high value that may be exact or a test limit, other limits are often not marked, values filed in µg/mL are converted to µM
# [1] = system: Bacillus subtilis ATCC 23857
# [2] = system: Escherichia coli ATCC 25922
# Acinetobacter baumannii = system: Acinetobacter baumannii
# Enterococcus faecalis = system: Enterococcus faecalis
# Escherichia coli = system: Escherichia coli
# Klebsiella pneumoniae = system: Klebsiella pneumoniae
# Pseudomonas aeruginosa = system: Pseudomonas aeruginosa
# Staphylococcus aureus = system: Staphylococcus aureus
# [3] = system: Staphylococcus epidermidis
# Candida albicans = system: Candida albicans
# Escherichia coli UB1005 = system: Escherichia coli UB1005
# [4] = system: Pseudomonas aeruginosa H103
# [5] = system: Pseudomonas aeruginosa PAO1
# [6] = system: Salmonella enterica serovar Typhimurium
# [7] = system: Staphylococcus aureus ATCC 25923
# [8] = system: Enterococcus faecalis ATCC 29212
SMILES,MIC [1],MIC [2],MIC (Acinetobacter baumannii),MIC (Enterococcus faecalis),MIC (Escherichia coli),MIC (Klebsiella pneumoniae),MIC (Pseudomonas aeruginosa),MIC (Staphylococcus aureus),MIC [3],MIC (Candida albicans),MIC (Escherichia coli UB1005),MIC [4],MIC [5],MIC [6],MIC [7],MIC [8]
CC[C@H](C)[C@H](NC(=O)CN)C(=O)N[C@H](C(=O)N[C@@H](C)C(=O)NCC(=O)N[C@@H](C)C(=O)N[C@H](C(=O)N[C@H](C(=O)N[C@@H](CCCCN)C(=O)N[C@H](C(=O)N[C@@H](CCCCN)C(=O)N[C@@H](CCCCN)C(N)=O)[C@@H](C)CC)[C@@H](C)CC)[C@@H](C)CC)[C@@H](C)CC [GIIAGAIIKIKK],≥ 32 µM,64 µM,,,,,,,,,,,,,,
CC[C@H](C)[C@H](NC(=O)CNC(=O)[C@H](CCCN=C(N)N)NC(=O)[C@H](Cc1ccc(O)cc1)NC(=O)[C@H](CC(C)C)NC(=O)[C@H](Cc1cnc[nH]1)NC(=O)CNC(=O)[C@H](Cc1ccccc1)NC(=O)[C@@H](N)Cc1c[nH]c2ccccc12)C(=O)N[C@H](C(=O)N[C@@H](CCCCN)C(=O)N[C@H](C(=O)N[C@H](C(=O)N[C@@H](CCCCN)C(=O)N[C@@H](Cc1cnc[nH]1)C(=O)N[C@H](C(=O)N[C@@H](Cc1cnc[nH]1)C(=O)NCC(=O)N[C@@H](CC(C)C)C(=O)N[C@@H](CC(C)C)C(=O)N[C@@H](CCCCN)C(=O)NCC(=O)O)C(C)C)C(C)C)C(C)C)[C@@H](C)O [WFGHLYRGITKVVKHVHGLLKG],,,1.2 µM,1.2 µM,2.5 µM,1.2 µM,4.9 µM,19.6 µM,2.5 µM,,,,,,,
CC[C@H](C)[C@H](NC(=O)[C@H](Cc1ccc(O)cc1)NC(=O)[C@@H](NC(=O)[C@H](CCCN=C(N)N)NC(=O)[C@H](Cc1c[nH]c2ccccc12)NC(=O)[C@H](CCCN=C(N)N)NC(=O)[C@H](Cc1ccccc1)NC(=O)[C@H](CCCCN)NC(=O)[C@@H](N)Cc1ccc(O)cc1)[C@@H](C)CC)C(=O)O [YKFRWRIYI],,,,,,,,,1.4 µM,> 92.8 µM,2.9 µM,≥ 92.8 µM,,≥ 92.8 µM,2.9 µM,2.9 µM

# Other lines, results leading:
MIC [1],MIC [2],MIC (Acinetobacter baumannii),MIC (Enterococcus faecalis),MIC (Escherichia coli),MIC (Klebsiella pneumoniae),MIC (Pseudomonas aeruginosa),MIC (Staphylococcus aureus),MIC [3],MIC (Candida albicans),MIC (Escherichia coli UB1005),MIC [4],MIC [5],MIC [6],MIC [7],MIC [8],SMILES
,,,,,,,,0.492 µM,7.38 µM,0.983 µM,3.69 µM,7.38 µM,1.84 µM,3.69 µM,,CC[C@H](C)[C@H](NC(=O)[C@H](CCCN=C(N)N)NC(=O)[C@H](Cc1ccccc1)NC(=O)[C@H](CCCN=C(N)N)NC(=O)[C@@H](N)CCCCN)C(=O)N[C@@H](CCCN=C(N)N)C(=O)N[C@H](C(=O)N[C@@H](CCCN=C(N)N)C(=O)N[C@H](C(=O)N[C@H](C(=O)N[C@@H](CCCN=C(N)N)C(=O)N[C@@H](CCCCN)C(N)=O)[C@@H](C)CC)C(C)C)C(C)C [KRFRIRVRVIRK]
,,,,,,,,0.7 µM,3 µM,1.5 µM,6 µM,,1.5 µM,0.7 µM,1.5 µM,CC[C@H](C)[C@H](NC(=O)[C@@H](N)Cc1ccccc1)C(=O)N[C@@H](CCCCN)C(=O)N[C@@H](Cc1c[nH]c2ccccc12)C(=O)N[C@@H](CCCCN)C(=O)N[C@@H](Cc1ccccc1)C(=O)N[C@@H](CCCN=C(N)N)C(=O)N[C@@H](Cc1c[nH]c2ccccc12)C(=O)N[C@@H](Cc1c[nH]c2ccccc12)C(=O)N[C@@H](CCCCN)C(=O)N[C@@H](Cc1c[nH]c2ccccc12)C(=O)N[C@@H](CCCN=C(N)N)C(=O)N[C@@H](CCCCN)C(=O)O [FIKWKFRWWKWRK]
,,,,,,,,1.3 µM,5.4 µM,2.7 µM,≥ 86.3 µM,,2.7 µM,1.3 µM,10.8 µM,CC[C@H](C)[C@H](NC(=O)[C@@H](N)CCCN=C(N)N)C(=O)N[C@@H](CCCCN)C(=O)N[C@@H](CCCN=C(N)N)C(=O)N[C@@H](Cc1c[nH]c2ccccc12)C(=O)N[C@@H](Cc1c[nH]c2ccccc12)C(=O)N[C@@H](Cc1c[nH]c2ccccc12)C(=O)N[C@@H](Cc1c[nH]c2ccccc12)C(=O)N[C@@H](CCCN=C(N)N)C(=O)O [RIKRWWWWR]
